{"source": "patent US20260248735A1", "about": "“A METHOD FOR PREPARING MICROPARTICLES FOR DRUG DELIVERY” (Danmarks Tekniske Universitet, priority 2023, published 2026)", "origin": "cited, not measured here", "settings": "as characterised by BCS class", "data": [{"substance": "calcitonin", "values": [{"measurement": "solubility", "result": "high"}]}]}
